Measurements: PMC3528769, “Comparative Study of the Fatty Acid Binding Process of a New FABP from Cherax quadricarinatus by Fluorescence Intensity, Lifetime and Anisotropy” (PLoS ONE, 2012)

Tests used:
Type in all cases: binding
Cq-FABP [1] = biological target: T1, Cq-FABP (Cherax quadricarinatus, UniProt L0I6Z9); test: BODIPY-C16 steady-state fluorescence anisotropy titration and competition; details: for Kd: read-out: Kd,FA
Protocol: The binding of 4,4-difluoro-5, 7-dimethyl-4-bora-3a, 4a-diaza-s-indacene-3-hexadecanoic acid (BODIPY-C16) to Cq-FABP was investigated by measuring the steady-state fluorescence anisotropy parameter using a Beacon instrument (PanVera, Madison, USA), in a cell thermostatically held at 25°C. The excitation and emission bandpass filters were centered at 488 nm (±6 nm) and 525 nm (±15 nm), respectively. Titration experiments were performed in buffer C (supplemented with 10% DMSO (v/v)) by maintening a constant concentration of BODIPY-C16 (200 nM) and by adding increasing concentrations of Cq-FABP. Using a vertical direction for the polarized excitation source, the steady-state fluorescence anisotropy (r) was calculated according to: [drawing 3] (3) where IV and IH correspond to the parallel (vertical) and perpendicular (horizontal) fluorescence emission intensity components, respectively. The fraction of BODIPY-C16/Cq-FABP complexes (i.e. the fraction of BODIPY-C16 bound to Cq-FABP), fb, was calculated using the following relationship: [drawing 4] (4) where r is the measured fluorescence anisotropy value, rf and rb correspond to the fluorescence anisotropy values of free BODIPY-C16 (ligand in the free state, measured in the absence of Cq-FABP) and Cq-FABP-bound BODIPY-C16 (ligand in the bound state, corresponding to the maximum anisotropy value found at the plateau), respectively. […] The Kd characterizing the BODIPY-C16/Cq-FABP complex (Kd,C16) was calculated by fitting the plot of fb versus [Cq-FABP] using the Graphpad Prism 5.0 software.
The fluorescence anisotropy-based assay was also used in competition experiments to calculate the Kd values (Kd,FA) characterizing non-fluorescent fatty acids. The measurement of the apparent Kd value characterizing the BODIPY-C16/Cq-FABP complex (Kd ^app ,C16) under different concentration conditions for the non-fluorescent FA allows the calculation of Kd,FA according to: [drawing 5] (5) where Kd,C16 corresponds to the Kd characterizing the BODIPY-C16/Cq-FABP complex (in the absence of any non-fluorescent FA) and Kd ^app ,C16 corresponds to the apparent dissociation constant obtained for a given concentration of non-fluorescent FA. The calculation of Kd,FA was also performed in an independent manner by measuring the IC50 value characterizing each non-fluorescent FA. In this approach, the number of complexes corresponding to [C16] = 200 nM and [Cq-FABP] = 5 µM was varied by increasing the concentration of non-fluorescent FA. The IC50 value corresponds to the concentration of non-fluorescent FA that displaces 50% of C16 from the fatty acid binding site of Cq-FABP and is related to Kd,FA through the Cheng-Prusoff relationship: [drawing 6] (6)

Cq-FABP [2] = biological target: T1, Cq-FABP; test: ANS fluorescence intensity titration and equilibrium displacement of ANS by fatty acids; details: calculated from equilibrium displacement experiments using the fluorescence intensity of ANS (Eq. 1); read-out: Kd,FA
Protocol: (§1) Fluorescence emission spectra were measured at 25°C on a Cary-Eclipse spectrofluorimeter (Varian, CA, USA) equipped with a thermostated cell holder, using solutions (70 µl) placed in microcuvettes (pathlength, 0.3 cm). The binding of non-fluorescent fatty acids (PA, OA, LA, EPA and DHA) to Cq-FABP was measured indirectly by equilibrium displacement experiments using ANS as a fluorescent probe, either by measuring the fluorescence emission of ANS or by measuring the FRET between tryptophan and ANS, resulting in the quenching of donor fluorescence. The excitation wavelength was then set at 296 or 350 nm for tryptophan or ANS, respectively; the slit widths and PMT voltage were adjusted to optimize the fluorescence signal at 25°C. For titration experiments, the fluorescence emission spectrum of tryptophan or ANS was measured and the integrated fluorescence signal of tryptophan (315–360 nm) or ANS (440–600 nm) was calculated. For samples containing high concentrations of ANS, the inner-filter effect was not negligible and was corrected. UV-visible absorption spectra were carried out on a Uvikon XL spectrophotometer.
The equilibrium dissociation constant (Kd,FA) relative to the binding of fatty acids (FA) to Cq-FABP was determined by competition experiments using ANS displacement and linear regression of the following relationship: [drawing 1] (1) where Kd,ANS is the dissociation constant relative to the binding of ANS to the fatty acid binding site, Kd ^app ,ANS is the apparent dissociation constant of ANS obtained in the presence of a given fatty acid concentration.

Cq-FABP [3] = biological target: T1, Cq-FABP; test: Time-resolved Trp fluorescence lifetime (single-photon counting) with ANS and PA; details: for FRET efficiency: from lifetimes
Protocol: The distribution of fluorescence lifetimes of tryptophan was determined by monitoring the intensity decay, I(t), using the single-photon counting technique [27]–[31]. Briefly, the excitation light pulse source was a Ti:sapphire laser (Mai Tai femtosecond laser, Spectra Physics, Mountain View, CA, USA) associated with a third harmonic generator tuned to 296 nm. The laser frequency was reduced from 80 to 8 MHz using a pulse picker (Spectra Physics). Fluorescence emission was detected by a microchannel plate photomultiplier (Hamamatsu model R3809U-05) through a monochromator (ARC SpectraPro-150) set at 340 nm (Δλ = 15 nm) with the emission polarizer set at the magic angle (54.7°). A time-correlated single-photon counting SPC-430 card (Becker–Hickl, Berlin, Germany) was used for the acquisition. Experiments were performed at 25°C using 5 µM Cq-FABP in buffer C. The average fluorescence lifetime values (τm), as reported in Table 1, were calculated from the lifetime distributions recovered by the maximum entropy method, [29], [32]. For example, Cq-FABP alone was characterized by three fluorescence lifetimes (τ1 = 0.6 ns (6%), τ2 = 2.67 ns (53%), τ3 = 3.89 (41%); τm = 3.04 ns).

Cq-FABP [4] = biological target: T1, Cq-FABP; test: Steady-state FRET between the single Trp (W49) and ANS, Trp quenching and recovery by PA; details: read-out: Kd,PA
Protocol: as §1

[5] = 5 µM Cq-FABP + 50 µM ANS + 70 µM PA
[6] = 5 µM Cq-FABP + 200 µM ANS + 70 µM PA

T1 sequence (L0I6Z9 entry or part of it): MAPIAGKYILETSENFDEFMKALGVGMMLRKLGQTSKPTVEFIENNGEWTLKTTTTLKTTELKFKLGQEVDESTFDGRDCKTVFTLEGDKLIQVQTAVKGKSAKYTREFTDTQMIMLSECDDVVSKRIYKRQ

IC50 (Cq-FABP [1]; 200 nM BODIPY-C16, 5 µM Cq-FABP, read-out: IC50 (displaces 50% of BODIPY-C16 from the fatty acid binding site)): 1.17 µM | Kd (Cq-FABP [1]; calculated from the IC50 values, using Eq. 6, 200 nM BODIPY-C16, 5 µM Cq-FABP): 1.15 ± 0.2 µM | Kd (Cq-FABP [1]; calculated from the Kd app,C16 values, using Eq. 5, 200 nM BODIPY-C16): 1.6 ± 0.3 µM | Kd (Cq-FABP [2]): 1.1 ± 0.3 µM | Average fluorescence Lifetime, τm (Cq-FABP [3]; [5]): 2.77 ns | FRET efficiency (Cq-FABP [3]; [5]): 8.9% | Average fluorescence Lifetime, τm (Cq-FABP [3]; 5 µM Cq-FABP + 70 µM PA): 2.96 ns | Average fluorescence Lifetime, τm (Cq-FABP [3]; [6]): 2.34 ns | FRET efficiency (Cq-FABP [3]; [6]): 23% | Kd (Cq-FABP [4]; FRET efficiency parameter, from slope of Kd app,PA versus [ANS] (Fig. 5B), average Kd,ANS 27.85 µM): 0.83 µM | Kd (Cq-FABP [4]; FRET efficiency parameter, y-intercept of Kd app,PA versus [ANS] (Fig. 5B)): 1.9 µM | Kd (Cq-FABP [4]; Trp fluorescence intensity parameter, from slope of Kd app,PA versus [ANS] (Fig. 5A), average Kd,ANS 27.85 µM): 1.29 µM | Kd (Cq-FABP [4]; Trp fluorescence intensity parameter, y-intercept of Kd app,PA versus [ANS] (Fig. 5A)): 1.47 µM
SMILES: CCCCCCCCCCCCCCCC(=O)O [PA, Palmitic acid]
